From ChEMBL document CHEMBL1201862, “PubChem BioAssay data set” (2004)
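Compound exposure: 48 hours, 5 concentrations, 96-well plates. GI50 marks 50% less growth.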 Calls of active or inactive are those of the source. No stated cut-off is given here; in the data, active = GI50 up to about 1.1 µM and inactive = higher.

Key:
Assay in all cases: growth of human tumour cells (NCI), 48 h
OVCAR-8 = tested on: OVCAR-8
LOX IMVI = tested on: LOX IMVI
OVCAR-3 = tested on: OVCAR-3
OVCAR-5 = tested on: OVCAR-5
HOP-92 = tested on: HOP-92
EKVX = tested on: EKVX
COLO 205 = tested on: COLO 205
SK-MEL-2 = tested on: SK-MEL-2
OVCAR-4 = tested on: OVCAR-4
UO-31 = tested on: UO-31
HCC 2998 = tested on: HCC 2998
HOP-62 = tested on: HOP-62
HCT-15 = tested on: HCT-15
RXF 393 = tested on: RXF 393
SK-MEL-5 = tested on: SK-MEL-5
ACHN = tested on: ACHN
NCI-H460 = tested on: NCI-H460
786-0 = tested on: 786-0
TK-10 = tested on: TK-10
NCI-H522 = tested on: NCI-H522

SMILES	GI50 (OVCAR-8)	GI50 (LOX IMVI)	GI50 (OVCAR-3)	GI50 (OVCAR-5)	GI50 (HOP-92)	GI50 (EKVX)	GI50 (COLO 205)	GI50 (SK-MEL-2)	GI50 (OVCAR-4)	GI50 (UO-31)	GI50 (HCC 2998)	GI50 (HOP-62)	GI50 (HCT-15) [µM]	GI50 (RXF 393)	GI50 (SK-MEL-5)	GI50 (ACHN)	GI50 (NCI-H460)	GI50 (786-0)	GI50 (TK-10)	GI50 (NCI-H522)
O=C(Nc1nc2c(=O)[nH]cnc2s1)c1ccccc1	> 100 µM (inactive)	64 µM (inactive)	> 100 µM (inactive)	> 100 µM (inactive)	49.1 µM (inactive)	> 100 µM (inactive)	> 100 µM (inactive)	> 100 µM (inactive)	> 100 µM (inactive)	97.9 µM (inactive)	> 100 µM (inactive)	> 100 µM (inactive)	> 100	55.7 µM (inactive)	> 100 µM (inactive)	91 µM (inactive)	41.5 µM (inactive)	> 100 µM (inactive)	68.9 µM (inactive)	> 100 µM (inactive)
COC(=O)C1(F)C(=O)NC(=O)NC1O (stereo not given)	> 100 µM (inactive)	> 100 µM (inactive)	62.7 µM (inactive)	> 100 µM (inactive)	> 58.9 µM (inactive)	99.8 µM (inactive)	40.4 µM (inactive)	> 100 µM (inactive)	80 µM (inactive)	59.4 µM (inactive)	> 45.9 µM (inactive)	> 100 µM (inactive)	61.5	> 100 µM (inactive)	> 100 µM (inactive)	> 75 µM (inactive)	50.6 µM (inactive)	> 100 µM (inactive)	> 100 µM (inactive)	> 100 µM (inactive)
COc1ccc(C2c3cc4c(cc3OC(N3CCOCC3)C2C)OCO4)cc1OC (stereo not given)	20.4 µM (inactive)	6.11 µM (inactive)	3.3 µM (inactive)	48.6 µM (inactive)	8.95 µM (inactive)	24.4 µM (inactive)	4.76 µM (inactive)	5.77 µM (inactive)	15.8 µM (inactive)	18 µM (inactive)	5.53 µM (inactive)	12 µM (inactive)	4.76	5.89 µM (inactive)	4.06 µM (inactive)	10.3 µM (inactive)	6.3 µM (inactive)	8.15 µM (inactive)	15.6 µM (inactive)	5.51 µM (inactive)
CC/C=C/C[C@H](O[Si](C)(C)C(C)(C)C)[C@H]1C[C@H]2O[C@H]([C@@H](O)C#C[Si](C)(C)C)C[C@H]2O1	14.8 µM (inactive)	10.4 µM (inactive)	14.8 µM (inactive)	14.1 µM (inactive)	10.4 µM (inactive)	12.9 µM (inactive)	13.5 µM (inactive)	15.5 µM (inactive)	5.85 µM (inactive)	14.2 µM (inactive)	15.9 µM (inactive)	16.1 µM (inactive)	13.7	6.65 µM (inactive)	6.78 µM (inactive)	15.2 µM (inactive)	15.8 µM (inactive)	14.7 µM (inactive)	15.2 µM (inactive)	3.64 µM (inactive)
CCOC(=O)/C=C1\Oc2ccccc2C1(C)O (stereo not given)	> 100 µM (inactive)	> 100 µM (inactive)	> 100 µM (inactive)	> 100 µM (inactive)	> 100 µM (inactive)	> 100 µM (inactive)	> 100 µM (inactive)	> 100 µM (inactive)	> 100 µM (inactive)	> 100 µM (inactive)	> 100 µM (inactive)	> 100 µM (inactive)	> 100	> 100 µM (inactive)	> 100 µM (inactive)	> 100 µM (inactive)	> 100 µM (inactive)	> 100 µM (inactive)	> 100 µM (inactive)	> 100 µM (inactive)
CC(=O)NC(CCCNC(=O)N(C)N=O)C(=O)NCc1ccccc1 (stereo not given)	> 100 µM (inactive)	> 100 µM (inactive)	> 100 µM (inactive)	> 100 µM (inactive)	> 100 µM (inactive)	> 100 µM (inactive)	> 100 µM (inactive)	> 100 µM (inactive)	> 100 µM (inactive)	> 100 µM (inactive)	> 100 µM (inactive)	> 100 µM (inactive)	> 100	> 100 µM (inactive)	> 100 µM (inactive)	> 100 µM (inactive)	> 100 µM (inactive)	> 100 µM (inactive)	> 100 µM (inactive)	> 100 µM (inactive)
COC(=O)C#CC(N)=O	30.7 µM (inactive)	> 35.8 µM (inactive)	> 100 µM (inactive)	> 100 µM (inactive)	20.6 µM (inactive)	> 100 µM (inactive)	> 100 µM (inactive)	> 91.2 µM (inactive)	> 100 µM (inactive)	> 100 µM (inactive)	> 100 µM (inactive)	> 100 µM (inactive)	> 100	31.4 µM (inactive)	> 100 µM (inactive)	> 100 µM (inactive)	> 100 µM (inactive)	> 59.3 µM (inactive)	> 55.6 µM (inactive)	> 63.1 µM (inactive)
C=C(Cl)C(Br)(CCl)CCC(Br)C(C)(C)Cl (stereo not given)	3.38 µM (inactive)	1.25 µM (inactive)	6.17 µM (inactive)	7.21 µM (inactive)	9.75 µM (inactive)	5.58 µM (inactive)	4.53 µM (inactive)	6.24 µM (inactive)	8.83 µM (inactive)	5.61 µM (inactive)	14.1 µM (inactive)	2.76 µM (inactive)	3.26	2.72 µM (inactive)	2.47 µM (inactive)	7.96 µM (inactive)	6.81 µM (inactive)	1.95 µM (inactive)	12.2 µM (inactive)	3.42 µM (inactive)
CC(=O)N(C)SCC(NC(=O)C(Cc1ccccc1)NC(=O)OCc1ccccc1)C(=O)NC(Cc1ccccc1)C(=O)NC(Cc1cn(C=O)c2ccccc12)C(=O)NC(CCCCNC(=O)OCc1ccccc1)C(=O)NC(C(=O)NC(CSN(C)C(C)=O)C(=O)NO)C(C)OCc1ccccc1 (stereo not given)	> 100 µM (inactive)	> 100 µM (inactive)	> 100 µM (inactive)	> 100 µM (inactive)	> 100 µM (inactive)	> 100 µM (inactive)	> 100 µM (inactive)	> 100 µM (inactive)	> 100 µM (inactive)	> 100 µM (inactive)	> 100 µM (inactive)	> 100 µM (inactive)	> 100	> 100 µM (inactive)	> 100 µM (inactive)	> 100 µM (inactive)	> 100 µM (inactive)	> 100 µM (inactive)	> 100 µM (inactive)	> 100 µM (inactive)
CC1OC(n2cc(F)c(=O)[nH]c2=O)CCC1O (stereo not given)	> 85.3 µM (inactive)	> 100 µM (inactive)	> 100 µM (inactive)	> 100 µM (inactive)	> 100 µM (inactive)	> 100 µM (inactive)	> 87.1 µM (inactive)	> 100 µM (inactive)	> 100 µM (inactive)	85.3 µM (inactive)	30.1 µM (inactive)	> 87.1 µM (inactive)	> 94.4	> 79.6 µM (inactive)	> 56.2 µM (inactive)	> 95.9 µM (inactive)	50.8 µM (inactive)	> 100 µM (inactive)	> 100 µM (inactive)	> 95.1 µM (inactive)
Cc1nc2ccccc2cc1C[N+]12CN3CN(CN(C3)C1)C2	30.3 µM (inactive)	14.7 µM (inactive)	28.1 µM (inactive)	23.8 µM (inactive)	45.2 µM (inactive)	23.3 µM (inactive)	14.1 µM (inactive)	18.6 µM (inactive)	22.3 µM (inactive)	23.6 µM (inactive)	17.1 µM (inactive)	24.5 µM (inactive)	15.2	16.6 µM (inactive)	18.4 µM (inactive)	17.1 µM (inactive)	18.2 µM (inactive)	11.5 µM (inactive)	24.9 µM (inactive)	18.9 µM (inactive)
CN(C)CCC1(C2=CCCC2)CC/C(=C\c2ccccc2)C1=O (stereo not given)	16.1 µM (inactive)	17.1 µM (inactive)	15.2 µM (inactive)	19.6 µM (inactive)	17.7 µM (inactive)	11.8 µM (inactive)	14.5 µM (inactive)	16.4 µM (inactive)	16.6 µM (inactive)	16.6 µM (inactive)	15.8 µM (inactive)	16.1 µM (inactive)	13	12.5 µM (inactive)	14.7 µM (inactive)	15.3 µM (inactive)	15.9 µM (inactive)	14.7 µM (inactive)	15.6 µM (inactive)	14.1 µM (inactive)
CCCCCC[N+](C)(C)Cc1ccc(C[N+](C)(C)CCCCCC)cc1	3.1 µM (inactive)	2.09 µM (inactive)	3.78 µM (inactive)	10.9 µM (inactive)	2.97 µM (inactive)	3.94 µM (inactive)	1.82 µM (inactive)	2.14 µM (inactive)	4.58 µM (inactive)	8.43 µM (inactive)	3.84 µM (inactive)	3.05 µM (inactive)	4	0.984 µM (active)	6.64 µM (inactive)	3.56 µM (inactive)	2.64 µM (inactive)	3.52 µM (inactive)	5.64 µM (inactive)	1.74 µM (inactive)
C/C(=N\N=C(/S)N1CCCCCC1)c1cccc[n+]1[O-]	3.12 µM (inactive)	4.52 µM (inactive)	0.61 µM (active)	21.4 µM (inactive)	11.1 µM (inactive)	7.23 µM (inactive)	0.499 µM (active)	2.37 µM (inactive)	8.17 µM (inactive)	7.55 µM (inactive)	1.71 µM (inactive)	1.12 µM (active)	0.845	18.4 µM (inactive)	2.22 µM (inactive)	4.58 µM (inactive)	1.8 µM (inactive)	1.53 µM (inactive)	21.5 µM (inactive)	0.592 µM (active)
